The EC50 is the midpoint of the concentration-response curve.

One test deals with recombinant NL4-3 virus (Renilla luciferase in nef, Gag P373S; NLRluc) in MT-2 cells. Nature of the test: whole plant or invertebrate. The class given is cell-based, HIV. The following applies: Renilla, NL43, luciferase activity in cells infected for 4-5 days with NLRluc recombinants, serial dilutions of inhibitor; class symbols (key in Table 1); read-out: EC50. In a few lines:
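Cells grown in serum-supplemented RPMI were exposed to graded inhibitor concentrations during a 4-5 day infection. Antiviral effect was then derived from luminescence after adding a combined lysis and dual-luciferase substrate mixture to each well.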
Take `C=C(C)[C@@H]1CC[C@]2(NCCNC(=O)OC(C)(C)C)CC[C@]3(C)[C@H](CC[C@@H]4[C@@]5(C)CC=C(c6ccc(C(=O)O)cc6)C(C)(C)[C@@H]5CC[C@]43C)[C@@H]12` [Example 138, 4-((1R,3aS,5aR,5bR,7aR,11aS,11bR,13aR,13bR)-3a-(2-(tert-butoxycarbonylamino)ethylamino)-5a,5b,8,8,11a-pentamethyl-1-(prop-1-en-2-yl)-2,3,3a,4,5,5a,5b,6,7,7a,8,11,11a,11b,12,13,13a,13b-octadecahydro-1H-cyclopenta[a]chrysen-9-yl)benzoic acid]: the EC50 was under 100 nM.
For the molecule `C=C(C)[C@@H]1CC[C@]2(NCCN)CC[C@]3(C)[C@H](CC[C@@H]4[C@@]5(C)CC=C(c6ccc(C(=O)O)cc6)C(C)(C)[C@@H]5CC[C@]43C)[C@@H]12` [Example 139, 4-((1R,3aS,5aR,5bR,7aR,11aS,11bR,13aR,13bR)-3a-(2-aminoethylamino)-5a,5b,8,8,11a-pentamethyl-1-(prop-1-en-2-yl)-2,3,3a,4,5,5a,5b,6,7,7a,8,11,11a,11b,12,13,13a,13b-octadecahydro-1H-cyclopenta[a]chrysen-9-yl)benzoic acid], the 50% effective concentration (EC50) is under 100 nM.
On the same count and under the same terms, the result for `C=C(C)[C@@H]1CC[C@]2(NCCN(CCC(=O)O)CCC(=O)O)CC[C@]3(C)[C@H](CC[C@@H]4[C@@]5(C)CC=C(c6ccc(C(=O)O)cc6)C(C)(C)[C@@H]5CC[C@]43C)[C@@H]12` [Example 141, 3,3′-(2-((1R,3aS,5aR,5bR,7aR,11aS,11bR,13aR,13bR)-9-(4-carboxyphenyl)-5a,5b,8,8,11a-pentamethyl-1-(prop-1-en-2-yl)-2,3,3a,4,5,5a,5b,6,7,7a,8,11,11a,11b,12,13,13a,13b-octadecahydro-1H-cyclopenta[a]chrysen-3a-ylamino)ethylazanediyl)dipropanoic acid] reads under 100 nM; that for `C=C(C)[C@@H]1CC[C@]2(NCCNCCC(=O)N(C)C)CC[C@]3(C)[C@H](CC[C@@H]4[C@@]5(C)CC=C(c6ccc(C(=O)O)cc6)C(C)(C)[C@@H]5CC[C@]43C)[C@@H]12` [Example 142, 4-((1R,3aS,5aR,5bR,7aR,11aS,11bR,13aR,13bR)-3a-(2-(3-(dimethylamino)-3-oxopropylamino)ethylamino)-5a,5b,8,8,11a-pentamethyl-1-(prop-1-en-2-yl)-2,3,3a,4,5,5a,5b,6,7,7a,8,11,11a,11b,12,13,13a,13b-octadecahydro-1H-cyclopenta[a]chrysen-9-yl)benzoic acid], under 100 nM.
The same measure, in the same setting: under `C=C(C)[C@@H]1CC[C@]2(NCCCNC(=O)OC(C)(C)C)CC[C@]3(C)[C@H](CC[C@@H]4[C@@]5(C)CC=C(c6ccc(C(=O)O)cc6)C(C)(C)[C@@H]5CC[C@]43C)[C@@H]12` [Example 143, 4-((1R,3aS,5aR,5bR,7aR,11aS,11bR,13aR,13bR)-3a-(3-(tert-butoxycarbonylamino)propylamino)-5a,5b,8,8,11a-pentamethyl-1-(prop-1-en-2-yl)-2,3,3a,4,5,5a,5b,6,7,7a,8,11,11a,11b,12,13,13a,13b-octadecahydro-1H-cyclopenta[a]chrysen-9-yl)benzoic acid] stands under 100 nM.
Regarding `C=C(C)[C@@H]1CC[C@]2(NCCCN3CCS(=O)(=O)CC3)CC[C@]3(C)[C@H](CC[C@@H]4[C@@]5(C)CC=C(c6ccc(C(=O)O)cc6)C(C)(C)[C@@H]5CC[C@]43C)[C@@H]12` [Example 144, 4-[(1R,3aS,5aR,5bR,7aR,11aS,11bR,13aR,13bR)-3a-[[3-(1,1-dioxido-4-thiomorpholinyl)propyl]amino]-2,3,3a,4,5,5a,5b,6,7,7a,8,11,11a,11b,12,13,13a,13b-octadecahydro-5a,5b,8,8,11a-pentamethyl-1-(1-methylethenyl)-1H-cyclopenta[a]chrysen-9-yl]-benzoic acid], the EC50 is under 100 nM.
For `C=C(C)[C@@H]1CC[C@]2(NCC(=O)N(C)C)CC[C@]3(C)[C@H](CC[C@@H]4[C@@]5(C)CC=C(c6ccc(C(=O)O)cc6)C(C)(C)[C@@H]5CC[C@]43C)[C@@H]12` [Example 145, 4-((1R,3aS,5aR,5bR,7aR,11aS,11bR,13aR,13bR)-3a-(2-(dimethylamino)-2-oxoethylamino)-5a,5b,8,8,11a-pentamethyl-1-(prop-1-en-2-yl)-2,3,3a,4,5,5a,5b,6,7,7a,8,11,11a,11b,12,13,13a,13b-octadecahydro-1H-cyclopenta[a]chrysen-9-yl)benzoic acid], the EC50 is under 100 nM.
In the case of `C=C(C)[C@@H]1CC[C@]2(NCCN3CCCC3=O)CC[C@]3(C)[C@H](CC[C@@H]4[C@@]5(C)CC=C(c6ccc(C(=O)O)cc6)C(C)(C)[C@@H]5CC[C@]43C)[C@@H]12` [Example 146, 4-((1R,3aS,5aR,5bR,7aR,11aS,11bR,13aR,13bR)-5a,5b,8,8,11a-pentamethyl-3a-(2-(2-oxopyrrolidin-1-yl)ethylamino)-1-(prop-1-en-2-yl)-2,3,3a,4,5,5a,5b,6,7,7a,8,11,11a,11b,12,13,13a,13b-octadecahydro-1H-cyclopenta[a]chrysen-9-yl)benzoic acid], the EC50 is under 100 nM.
`C=C(C)[C@@H]1CC[C@]2(NCC(=O)N3CCCC3)CC[C@]3(C)[C@H](CC[C@@H]4[C@@]5(C)CC=C(c6ccc(C(=O)O)cc6)C(C)(C)[C@@H]5CC[C@]43C)[C@@H]12` [Example 147, 4-((1R,3aS,5aR,5bR,7aR,11aS,11bR,13aR,13bR)-5a,5b,8,8,11a-pentamethyl-3a-(2-oxo-2-(pyrrolidin-1-yl)ethylamino)-1-(prop-1-en-2-yl)-2,3,3a,4,5,5a,5b,6,7,7a,8,11,11a,11b,12,13,13a,13b-octadecahydro-1H-cyclopenta[a]chrysen-9-yl)benzoic acid]: the EC50 was under 100 nM.
With `C=C(C)[C@@H]1CC[C@]2(NCC(=O)NC)CC[C@]3(C)[C@H](CC[C@@H]4[C@@]5(C)CC=C(c6ccc(C(=O)O)cc6)C(C)(C)[C@@H]5CC[C@]43C)[C@@H]12` [Example 148, 4-((1R,3aS,5aR,5bR,7aR,11aS,11bR,13aR,13bR)-5a,5b,8,8,11a-pentamethyl-3a-(2-(methylamino)-2-oxoethylamino)-1-(prop-1-en-2-yl)-2,3,3a,4,5,5a,5b,6,7,7a,8,11,11a,11b,12,13,13a,13b-octadecahydro-1H-cyclopenta[a]chrysen-9-yl)benzoic acid], the EC50 is under 100 nM.
The same measure, in the same setting: under `C=C(C)[C@@H]1CC[C@]2(NCC(=O)N(CC)CC)CC[C@]3(C)[C@H](CC[C@@H]4[C@@]5(C)CC=C(c6ccc(C(=O)O)cc6)C(C)(C)[C@@H]5CC[C@]43C)[C@@H]12` [Example 149, 4-((1R,3aS,5aR,5bR,7aR,11aS,11bR,13aR,13bR)-3a-(2-(diethylamino)-2-oxoethylamino)-5a,5b,8,8,11a-pentamethyl-1-(prop-1-en-2-yl)-2,3,3a,4,5,5a,5b,6,7,7a,8,11,11a,11b,12,13,13a,13b-octadecahydro-1H-cyclopenta[a]chrysen-9-yl)benzoic acid] stands under 100 nM; under `C=C(C)[C@@H]1CC[C@]2(NCC(=O)NC(C)C)CC[C@]3(C)[C@H](CC[C@@H]4[C@@]5(C)CC=C(c6ccc(C(=O)O)cc6)C(C)(C)[C@@H]5CC[C@]43C)[C@@H]12` [Example 150, 4-((1R,3aS,5aR,5bR,7aR,11aS,11bR,13aR,13bR)-3a-(2-(isopropylamino)-2-oxoethylamino)-5a,5b,8,8,11a-pentamethyl-1-(prop-1-en-2-yl)-2,3,3a,4,5,5a,5b,6,7,7a,8,11,11a,11b,12,13,13a,13b-octadecahydro-1H-cyclopenta[a]chrysen-9-yl)benzoic acid], under 100 nM.
For `C=C(C)[C@@H]1CC[C@]2(NCCO)CC[C@]3(C)[C@H](CC[C@@H]4[C@@]5(C)CC=C(c6ccc(C(=O)O)cc6)C(C)(C)[C@@H]5CC[C@]43C)[C@@H]12` [Example 151, 4-((1R,3aS,5aR,5bR,7aR,11aS,11bR,13aR,13bR)-3a-(2-hydroxyethylamino)-5a,5b,8,8,11a-pentamethyl-1-(prop-1-en-2-yl)-2,3,3a,4,5,5a,5b,6,7,7a,8,11,11a,11b,12,13,13a,13b-octadecahydro-1H-cyclopenta[a]chrysen-9-yl)benzoic acid], the EC50 was under 100 nM.
As for `C=C(C)[C@@H]1CC[C@]2(NCC3CC3)CC[C@]3(C)[C@H](CC[C@@H]4[C@@]5(C)CC=C(c6ccc(C(=O)O)cc6)C(C)(C)[C@@H]5CC[C@]43C)[C@@H]12` [Example 152, 4-((1R,3aS,5aR,5bR,7aR,11aS,11bR,13aR,13bR)-3a-(cyclopropylmethylamino)-5a,5b,8,8,11a-pentamethyl-1-(prop-1-en-2-yl)-2,3,3a,4,5,5a,5b,6,7,7a,8,11,11a,11b,12,13,13a,13b-octadecahydro-1H-cyclopenta[a]chrysen-9-yl)benzoic acid], the half-maximal effective concentration (EC50) was under 100 nM.

Staying with this test, now noted: Renilla, NL43, luciferase activity in cells infected for 4-5 days with NLRluc recombinants, serial dilutions of inhibitor; numeric values; read-out: EC50.
As for `C=C(C)[C@@H]1CC[C@]2(NCCNCCC(=O)O)CC[C@]3(C)[C@H](CC[C@@H]4[C@@]5(C)CC=C(c6ccc(C(=O)O)cc6)C(C)(C)[C@@H]5CC[C@]43C)[C@@H]12` [Example 140, 4-((1R,3aS,5aR,5bR,7aR,11aS,11bR,13aR,13bR)-3a-(2-(2-carboxyethylamino)ethylamino)-5a,5b,8,8,11a-pentamethyl-1-(prop-1-en-2-yl)-2,3,3a,4,5,5a,5b,6,7,7a,8,11,11a,11b,12,13,13a,13b-octadecahydro-1H-cyclopenta[a]chrysen-9-yl)benzoic acid], the concentration giving a half-maximal response (EC50) came to 9 nM.

The values above are taken from US20140343000A1 (priority 2011, published 2014).
